In patent US11759455B2, “Substituted 1H-imidazo[4,5-b]pyridin-2(3H)-ones and their use as GLUN2B receptor modulators” (JANSSEN PHARMACEUTICA NV, priority 2016, dated 2023) one finds IC50 data, which are given here for 35 compounds.

Like-named read-outs stand apart in the source and are kept apart here.

Experiment [1] has as its target T1, human GluN1/GluN2B NMDA receptors (Homo sapiens, UniProt Q05586+Q13224).
T1 construct: expressed in transfected cells
The experiment is described as follows: Cell-based calcium flux (FLIPR) assay on cloned human NR1/NR2B ion channels expressed in mammalian cells (standard and HTS buffer variants).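 Further: stable Tet-On inducible cell line, Ca2+ influx triggered by glutamate at about EC40 plus 10 µM glycine, fluorescent dye read-out over 5 min, normalized to control wells.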 The settings on record: read-out: NR2B IC50 (μM) standard assay. A general note: Calcium assays in cells follow changes in intracellular calcium, usually with a dye or a luminescent sensor.

Experiment [2] has as its target T2, human GluN1/GluN2B NMDA receptors (Homo sapiens, UniProt Q13224).
T2 construct: expressed in transfected cells
The experiment is described as above. The settings on record: read-out: NR2B IC50 (μM) standard assay.

[3] abbreviates: standard assay buffer (0.5 mM MgCl2 dye loading; 137 mM NaCl, 4 mM KCl assay buffer), human GluN1/GluN2B cells.
Setting [4] is: standard assay buffer (0.5 mM MgCl2 in dye loading buffer; 137 mM NaCl, 4 mM KCl in assay buffer), human GluN1/GluN2B.

T1 sequence (Q13224 27-1484, other chains not shown): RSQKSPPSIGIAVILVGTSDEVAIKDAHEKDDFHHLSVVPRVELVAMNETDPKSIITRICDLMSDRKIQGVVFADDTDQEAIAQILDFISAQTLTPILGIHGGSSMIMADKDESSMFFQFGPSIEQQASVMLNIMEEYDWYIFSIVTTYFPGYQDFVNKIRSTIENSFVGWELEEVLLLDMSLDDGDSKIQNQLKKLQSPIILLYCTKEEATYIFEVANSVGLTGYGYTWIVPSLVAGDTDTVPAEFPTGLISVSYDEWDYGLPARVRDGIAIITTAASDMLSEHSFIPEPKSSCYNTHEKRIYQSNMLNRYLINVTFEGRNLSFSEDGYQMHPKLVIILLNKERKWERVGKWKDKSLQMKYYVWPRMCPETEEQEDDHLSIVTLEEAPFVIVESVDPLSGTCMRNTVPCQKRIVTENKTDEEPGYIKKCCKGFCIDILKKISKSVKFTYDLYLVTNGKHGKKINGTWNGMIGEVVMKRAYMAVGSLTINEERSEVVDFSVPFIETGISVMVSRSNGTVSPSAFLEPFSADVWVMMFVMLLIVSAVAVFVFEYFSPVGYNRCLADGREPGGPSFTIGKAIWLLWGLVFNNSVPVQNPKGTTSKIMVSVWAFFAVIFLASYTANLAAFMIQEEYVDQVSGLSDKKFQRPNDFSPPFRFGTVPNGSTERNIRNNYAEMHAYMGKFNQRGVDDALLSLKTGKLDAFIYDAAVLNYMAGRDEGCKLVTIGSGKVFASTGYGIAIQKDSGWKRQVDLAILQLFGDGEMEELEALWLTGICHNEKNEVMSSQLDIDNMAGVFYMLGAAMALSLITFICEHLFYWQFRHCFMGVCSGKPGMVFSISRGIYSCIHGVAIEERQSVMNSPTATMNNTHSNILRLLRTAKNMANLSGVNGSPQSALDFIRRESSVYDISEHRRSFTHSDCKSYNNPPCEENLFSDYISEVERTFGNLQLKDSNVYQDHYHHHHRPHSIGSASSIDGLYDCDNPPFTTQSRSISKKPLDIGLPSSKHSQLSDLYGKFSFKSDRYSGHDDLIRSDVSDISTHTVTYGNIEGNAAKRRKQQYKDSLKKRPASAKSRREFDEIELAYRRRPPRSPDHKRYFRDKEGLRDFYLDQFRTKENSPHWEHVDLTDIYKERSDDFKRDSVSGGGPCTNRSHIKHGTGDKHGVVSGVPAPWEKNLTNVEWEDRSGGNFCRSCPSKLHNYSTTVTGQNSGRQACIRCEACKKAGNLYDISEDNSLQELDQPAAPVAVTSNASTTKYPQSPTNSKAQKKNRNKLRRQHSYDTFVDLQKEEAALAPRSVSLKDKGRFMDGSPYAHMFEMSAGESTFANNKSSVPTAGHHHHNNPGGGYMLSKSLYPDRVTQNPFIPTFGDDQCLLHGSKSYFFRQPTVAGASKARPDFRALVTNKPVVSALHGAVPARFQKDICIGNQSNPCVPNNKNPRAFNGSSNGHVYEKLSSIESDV
T2 sequence (Q13224 27-1484, other chains not shown): as above

One may read the IC50 as the concentration that gives 50% inhibition. As for `O=c1[nH]c2ncc(-c3cccc(C(F)(F)F)c3)cc2n1CC1CCN1` (racemic) [Example 263, (R/S)-1-(Azetidin-2-ylmethyl)-6-[3-(trifluoromethyl)phenyl]-3H-imidazo[4,5-b]pyridin-2-one], the IC50 in experiment [1] (setting [3]) was 0.063 µM.
Regarding `O=c1[nH]c2ncc(-c3cccc(C(F)(F)F)c3)cc2n1CC1CNCCO1` (racemic) [Example 217, (R/S)-1-(Morpholin-2-ylmethyl)-6-[3-(trifluoromethyl)phenyl]-3H-imidazo[4,5-b]pyridin-2-one], in experiment [1] (setting [3]), the IC50 was found to be 6.49 µM.
On to `Cn1c(=O)n(CC2CCO2)c2cc(-c3cccc(C(F)(F)F)c3F)cnc21` (racemic) [Example 396, (R/S)-6-[2-Fluoro-3-(trifluoromethyl)phenyl]-3-methyl-1-(oxetan-2-ylmethyl)imidazo[4,5-b]pyridin-2-one], for which the IC50 in experiment [1] (setting [4]) worked out at 0.135 µM.
Consider `O=c1[nH]c2ncc(-c3cccc(C(F)(F)F)c3)cc2n1CC(O)C1CC1` (racemic) [Example 31, (R/S)-1-(2-Cyclopropyl-2-hydroxy-ethyl)-6-[3-(trifluoromethyl)phenyl]-3H-imidazo[4,5-b]pyridin-2-one], for which the IC50 in experiment [1] (setting [3]) was 0.151 µM.
For the compound `CC(C)C(O)Cn1c(=O)[nH]c2ncc(-c3cccc(C(F)(F)F)c3)cc21` (racemic) [Example 338, (R/S)-1-(2-Hydroxy-3-methyl-butyl)-6-[3-(trifluoromethyl)phenyl]-3H-imidazo[4,5-b]pyridin-2-one], in experiment [1] (setting [4]), the IC50 worked out at 0.687 µM.
As for `[2H]C([2H])([2H])OCc1ccc(-c2cnc3c(c2)n(CC(=O)N2CC(F)C2)c(=O)n3C)s1` [Example 123, 1-[2-(3-Fluoroazetidin-1-yl)-2-oxo-ethyl]-3-methyl-6-[5-(trideuteriomethoxymethyl)-2-thienyl]imidazo[4,5-b]pyridin-2-one], the half-inhibitory concentration (IC50) in experiment [1] (setting [3]) was 1.82 µM.
As to `Cc1cc(F)ccc1-c1cnc2c(c1)n(CC1CCO1)c(=O)n2C` (racemic) [Example 33, (R/S)-6-(4-Fluoro-2-methyl-phenyl)-3-methyl-1-(oxetan-2-ylmethyl)imidazo[4,5-b]pyridin-2-one], the IC50 in experiment [1] (setting [3]) was 1.23 µM.
For the compound `CC(C(=O)N1CCC1)n1c(=O)[nH]c2ncc(-c3cccc(C(F)(F)F)c3)cc21` (racemic) [Example 203, (R/S)-1-[2-(Azetidin-1-yl)-1-methyl-2-oxo-ethyl]-6-[3-(trifluoromethyl)phenyl]-3H-imidazo[4,5-1D]pyridin-2-one], the IC50 in experiment [1] (setting [3]) worked out at 1.1 µM.
For the compound `CCC(O)Cn1c(=O)[nH]c2ncc(-c3cccc(C)c3)cc21` (racemic) [Example 335, (R/S)-1-(2-Hydroxybutyl)-6-(m-tolyl)-3H-imidazo[4,5-b]pyridin-2-one], in experiment [1] (setting [4]), the IC50 stood at 0.054 µM.
On to `[2H]C([2H])([2H])OCc1ccc(-c2cnc3c(c2)n(CC(=O)N2CCC2)c(=O)n3C)s1` [Example 122, 1-[2-(Azetidin-1-yl)-2-oxo-ethyl]-3-methyl-6-[5-(trideuteriomethoxymethyl)-2-thienyl]imidazo[4,5-b]pyridin-2-one], for which the IC50 in experiment [1] (setting [3]) came out at 1.22 µM.
With `Cc1c(-c2cnc3c(c2)n(CC(O)CCO)c(=O)n3C)cccc1C(F)(F)F` (racemic) [Example 399, (R/S)-1-(2,4-Dihydroxybutyl)-3-methyl-6-[2-methyl-3-(trifluoromethyl)phenyl]imidazo[4,5-b]pyridin-2-one], the IC50 in experiment [1] (setting [4]) stood at 5.1 µM.
Turning to `COc1ccc(-c2cnc3[nH]c(=O)n(CC(C)C)c3c2)cc1` [Example 604, 1-Isobutyl-6-(4-methoxyphenyl)-3H-imidazo[4,5-b]pyridin-2-one], the IC50 in experiment [1] (setting [4]) worked out at 1.82 µM.
Regarding `CCC(O)Cn1c(=O)[nH]c2ncc(-c3ccc(F)c(C)c3F)cc21` (racemic) [Example 336, (R/S)-6-(2,4-Difluoro-3-methyl-phenyl)-1-(2-hydroxybutyl)-3H-imidazo[4,5-b]pyridin-2-one], the IC50 in experiment [1] (setting [4]) turned out to be 0.015 µM.
The same measure, in the same setting: as for `COc1ccc(-c2cnc3[nH]c(=O)n(CC(=O)C(C)(C)C)c3c2)cc1C` [Example 603, 1-(3,3-Dimethyl-2-oxo-butyl)-6-(4-methoxy-3-methyl-phenyl)-3H-imidazo[4,5-b]pyridin-2-one], the figure is 1.29 µM.
As to `Cn1c(=O)n(CC2CCO2)c2cc(-c3cccc(C(F)(F)F)c3)cnc21` (racemic) [Example 133, (R/S)-3-methyl-1-(oxetan-2-ylmethyl)-6-[3-(trifluoromethyl)phenyl]imidazo[4,5-b]pyridin-2-one], the IC50 in experiment [1] (setting [3]) stood at 0.211 µM.
On the same count and under the same terms, as for `O=c1[nH]c2ncc(-c3cccc(Cl)c3Cl)cc2n1CC1CCN1` (racemic) [Example 268, (R/S)-1-(Azetidin-2-ylmethyl)-6-(2,3-dichlorophenyl)-3H-imidazo[4,5-b]pyridin-2-one], the figure is 0.041 µM.
On to `COc1ccc(-c2cnc3[nH]c(=O)n(CC(=O)C(C)(C)C)c3c2)cc1` [Example 601, 1-(3,3-Dimethyl-2-oxo-butyl)-6-(4-methoxyphenyl)-3H-imidazo[4,5-b]pyridin-2-one], for which the IC50 in experiment [1] (setting [4]) turned out to be 1.63 µM.
On to `[2H]C([2H])([2H])OCc1ccc(-c2cnc3c(c2)n(CC(=O)N(C)C)c(=O)n3C)s1` [Example 121, N,N-Dimethyl-2-[3-methyl-2-oxo-6-[5-(trideuteriomethoxymethyl)-2-thienyl]imidazo[4,5-b]pyridin-1-yl]acetamide], for which the IC50 in experiment [1] (setting [3]) amounted to 2.96 µM.
As for `CCC(O)Cn1c(=O)[nH]c2ncc(-c3cccc(C(F)(F)F)c3)cc21` (racemic) [Example 337, (R/S)-1-(2-Hydroxybutyl)-6-[3-(trifluoromethyl)phenyl]-3H-imidazo[4,5-b]pyridin-2-one], the IC50 in experiment [1] (setting [4]) was 0.119 µM.
With `O=c1[nH]c2ncc(-c3cccc(C(F)(F)F)c3)cc2n1CC1CCO1` (single isomer, unassigned) [Example 223, (R*)-1-(Oxetan-2-ylmethyl)-6-[3-(trifluoromethyl)phenyl]-3H-imidazo[4,5-b]pyridin-2-one], the IC50 in experiment [1] (setting [3]) was 0.036 µM.
In the case of `COc1ccc(-c2cnc3[nH]c(=O)n(CC(=O)C(C)(C)C)c3c2)cc1F` [Example 609, 1-(3,3-Dimethyl-2-oxo-butyl)-6-(3-fluoro-4-methoxy-phenyl)-3H-imidazo[4,5-b]pyridin-2-one], the IC50 in experiment [1] (setting [4]) was found to be 0.263 µM.
`CCC(O)Cn1c(=O)[nH]c2ncc(-c3ccc(F)c(C)c3)cc21` (racemic) [Example 334, (R/S)-6-(4-Fluoro-3-methyl-phenyl)-1-(2-hydroxybutyl)-3H-imidazo[4,5-b]pyridin-2-one]: in experiment [1] (setting [4]), the IC50 is 0.031 µM.
As to `O=c1[nH]c2ncc(-c3cccc(C(F)(F)F)c3)cc2n1CC1CC1(F)F` (racemic) [Example 225, (R/S)-1-[(2,2-Difluorocyclopropyl)methyl]-6-[3-(trifluoromethyl)phenyl]-3H-imidazo[4,5-b]pyridin-2-one], the IC50 in experiment [1] (setting [3]) stood at 0.4 µM.
`O=c1[nH]c2ncc(-c3cccc(C(F)(F)F)c3)cc2n1CC1CCO1` (racemic) [Example 216, (R/S)-1-(Oxetan-2-ylmethyl)-6-[3-(trifluoromethyl)phenyl]-3H-imidazo[4,5-b]pyridin-2-one]: the IC50 in experiment [1] (setting [3]) was 0.034 µM.
For `Cn1c(=O)n(CC2CCO2)c2cc(-c3cccc(C(F)F)c3)cnc21` (racemic) [Example 394, (R/S)-6-[3-(Difluoromethyl)phenyl]-3-methyl-1-(oxetan-2-ylmethyl)imidazo [4,5-b]pyridin-2-one], the IC50 in experiment [1] (setting [4]) worked out at 0.128 µM.
`CCC(O)Cn1c(=O)n(C)c2ncc(-c3ccc(F)c(F)c3)cc21` (racemic) [Example 333, (R/S)-6-(3,4-Difluorophenyl)-1-(2-hydroxybutyl)-3-methyl-imidazo[4,5-b]pyridin-2-one]: the IC50 in experiment [1] (setting [4]) came to 1.9 µM.
With `O=c1[nH]c2ncc(-c3cccc(C(F)(F)F)c3)cc2n1CC1CCCO1` (racemic) [Example 24, (R/S)-1-(Tetrahydrofuran-2-ylmethyl)-6-[3-(trifluoromethyl)phenyl]-3H-imidazo[4,5-b]pyridin-2-one], the IC50 in experiment [1] (setting [3]) was 0.127 µM.
With `Cc1cc(C)cc(-c2cnc3[nH]c(=O)n(CC4CC4)c3c2)c1` [Example 474, 1-(Cyclopropylmethyl)-6-(3,5-dimethylphenyl)-3H-imidazo[4,5-b]pyridin-2-one], the IC50 in experiment [2] (setting [4]) was 3.57 µM.
The same measure, in the same setting: as for `CCC(=O)Cn1c(=O)n(C)c2ncc(-c3ccc(F)c(F)c3)cc21` [Example 390, 6-(3,4-Difluorophenyl)-3-methyl-1-(2-oxobutyl)imidazo[4,5-b]pyridin-2-one], the figure is 0.019 µM.
Consider `O=c1[nH]c2ncc(-c3cccc(OC(F)F)c3)cc2n1Cc1cccnc1` [Example 300, 6-[3-(Difluoromethoxy)phenyl]-1-(3-pyridylmethyl)-3H-imidazo[4,5-b]pyridin-2-one], for which the IC50 in experiment [2] (setting [3]) was 0.03 µM.
In the case of `CCC(=O)Cn1c(=O)n(C)c2ncc(-c3cccc(C4CC4)c3)cc21` [Example 392, 6-(3-Cyclopropylphenyl)-3-methyl-1-(2-oxobutyl)imidazo[4,5-b]pyridin-2-one], the IC50 in experiment [2] (setting [4]) is 0.324 µM.
`Cn1c(=O)n(Cc2cccnn2)c2cc(-c3ccc(C(F)F)s3)cnc21` [Example 100, 6-[5-(Difluoromethyl)-2-thienyl]-3-methyl-1-(pyridazin-3-ylmethyl)imidazo[4,5-b]pyridin-2-one]: the IC50 in experiment [2] (setting [3]) was determined as 0.033 µM.
With `Cc1nccc(Cn2c(=O)[nH]c3ncc(-c4cccc(C(F)(F)F)c4)cc32)n1` [Example 254, 1-[(2-Methylpyrimidin-4-yl)methyl]-6-[3-(trifluoromethyl)phenyl]-3H-imidazo[4,5-b]pyridin-2-one], the IC50 in experiment [2] (setting [3]) amounted to 0.824 µM.
For `O=C(Cn1c(=O)[nH]c2ncc(-c3cccc(C(F)(F)F)c3)cc21)N1CCOCC1` [Example 204, 1-(2-Morpholino-2-oxo-ethyl)-6-[3-(trifluoromethyl)phenyl]-3H-imidazo[4,5-b]pyridin-2-one], the IC50 in experiment [2] (setting [3]) amounted to 0.037 µM.
For the compound `Cn1c(=O)n(CC(=O)N2CC(F)(F)C2)c2cc(-c3ccc(C(F)(F)F)s3)cnc21` [Example 430, 1-[2-(3,3-Difluoroazetidin-1-yl)-2-oxo-ethyl]-3-methyl-6-[5-(trifluoromethyl)-2-thienyl]imidazo[4,5-b]pyridin-2-one], in experiment [2] (setting [4]), the IC50 was 0.028 µM.
